IC50 and melting point data for two molecules are collected here from patent publication US7151108B2, “[3,4-a:3,4-c]carbazole compounds” (Les Laboratories Servier, priority 2002, dated 2006).

For one series, the system named is L1210 murine leukaemia. Put plainly: In vitro antiproliferative activity (Microculture Tetrazolium Assay) on L1210. It counts as cell-based. The settings on record: L1210 cells, exposure 4 doubling periods or 48 hours; read-out: IC50, the concentration of cytotoxic agent that inhibits the proliferation of the treated cells by 50%. How it is done:
(§1) Three cell lines were used: • L1210 murine leukaemia • A549 non-small-cell human lung carcinoma • DU145 prostate carcinoma
(§2) L1210 murine leukaemia was used in vitro. The cells are cultured in RPMI 1640 complete culture medium containing 10% foetal calf serum, 2 mM glutamine, 50 units/ml of penicillin, 50 μg/ml of streptomycin and 10 mM Hepes, pH: 7.4. The cells are distributed on microplates and are exposed to the cytotoxic compounds for 4 doubling periods, or 48 hours. The number of viable cells is then quantified by a colorimetric assay, the Microculture Tetrazolium Assay (J. Carmichael et al., Cancer Res.; 47, 936–942 (1987)). The results are expressed as the IC50, the concentration of cytotoxic agent that inhibits the proliferation of the treated cells by 50%.

For series [1], the system named is A549 non-small-cell human lung carcinoma. Put plainly: In vitro antiproliferative activity (Microculture Tetrazolium Assay) on A549. It counts as cell-based. The note with it: A549 cells; read-out: IC50, the concentration of cytotoxic agent that inhibits the proliferation of the treated cells by 50%. How it is done: as §1, §2
For a further series, the system named is DU145 prostate carcinoma. Put plainly: In vitro antiproliferative activity (Microculture Tetrazolium Assay) on DU145. It counts as cell-based. The note with it: DU 145 cells; read-out: IC50, the concentration of cytotoxic agent that inhibits the proliferation of the treated cells by 50%. How it is done: as §1, §2

Regarding `Cn1c(=O)c2c3[nH]c4ccccc4c3c3c(=O)n(C)c(=O)c3c2c1=O` [Example 2, 2,5-dimethyl-1H-dipyrrolo[3,4-a:3,4-c]carbazole-1,3,4,6(2H,5H,7H)-tetrone], the values for the IC50 (in the series with L1210 murine leukaemia; in series [1]; with DU145 prostate carcinoma) were 6.8 µM, 4.7 µM and 5.4 µM, respectively.

In general, melting point refers to the temperature of the solid-liquid transition. For the molecule `Cn1c(=O)c2c3[nH]c4ccccc4c3c3c(=O)oc(=O)c3c2c1=O`, the melting point is 294 °C (dec.).
